# Measured values taken from PMC4265264 (Hepatology (Baltimore, Md.), 2014).
# Tests used:
# [1] = test system: calcineurin/NF-AT pathway; experiment: Calcineurin/NF-AT reporter assay in Jurkat cells; type: cell-based, human; details: pNF-AT-luc, PMA and ionomycin
# HCVpp = experiment: HCV pseudoparticle; type: cell-based, hepatitis C virus; details: Huh-7.5.1 cells pretreated 1 h, HCVpp 4 h, read at 72 h
# HBV [2] = experiment: HBV replication in HepAD38 cells, southern blot of core particle HBV DNA; type: cell-based, hepatitis B virus; details: lamivudine 1 μM, 6 days
# HCV = details: read-out: anti-HCV replication activity (IC50); cited from earlier work
# HBV [3] = experiment: HBV infection of HepG2 cells overexpressing NTCP; type: cell-based, hepatitis B virus; details: pretreated 2 h, HBV 16 h
# HBV [4] = experiment: HBV attachment and internalization assay in HepaRG cells; type: cell-based, hepatitis B virus; details: CsA 4 μM
# HBV [5] = experiment: HBV infection; type: cell-based, hepatitis B virus; details: HepaRG
# HBV [6] = experiment: HBV infection of primary human hepatocytes; type: cell-based, hepatitis B virus; details: CsA 4 μM, HBs in medium or HBV DNA in cells at 12 days
# HBV particles = experiment: Pretreatment of HBV particles with compounds, then infection of HepaRG cells; type: cell-based, hepatitis B virus; details: 30 min 37°C, compound removed by ultrafiltration, HBs at 12 days
compound,measurement,setting,value
C=CC[C@@H]1/C=C(\C)C[C@H](C)C[C@H](OC)[C@H]2O[C@@](O)(C(=O)C(=O)N3CCCC[C@H]3C(=O)O[C@H](/C(C)=C/[C@@H]3CC[C@@H](O)[C@H](OC)C3)[C@H](C)[C@@H](O)CC1=O)[C@H](C)C[C@@H]2OC [FK506],Calcineurin (CN)/NF-AT pathway inhibition,[1],can inhibit CN
CO/C1=C\C(C)=C\[C@@H](C)[C@@H](O)[C@@H](C)C/C(C)=C/C=C/[C@H](OC)[C@@H]([C@@H](C)[C@@H](O)[C@H](C)[C@@]2(O)C[C@@H](O)[C@H](C)[C@@H](C(C)C)O2)OC1=O [bafilomycin A1],HCV entry (HCVpp luciferase activity),HCVpp,inhibition of HCV entry
Nc1ccn([C@@H]2CS[C@H](CO)O2)c(=O)n1 [lamivudine],HBV DNA in HepAD38 cells,HBV [2],drastically decreased HBV DNAs
Alisporivir,IC50,HCV,220 nM
PSC833,Calcineurin (CN)/NF-AT pathway inhibition,[1],inactive for CN inhibition
cyclosporin A [CsA],HBs and HBe secretion of HBV-infected HepG2-NTCP cells,HBV [3],reduced HBs and HBe secretion
same,Attached HBV DNA (attachment assay),"HBV [4]; 4°C 3 h, real-time PCR","slightly reduced the amount of attached HBV DNA, although the effect was not statistically significant"
same,Internalized HBV DNA (internalization assay),"HBV [4]; 37°C 16 h after attachment, trypsinized",significant reduction of HBV DNA
same,"HBc protein, HBV DNA and cccDNA in the cells and HBe in the medium","HBV [5]; CsA 4 μM, 12 days postinfection",significantly decreased
same,"HBs and HBe production, compound added during HBV infection (time of addition)","HBV [5]; CsA 4 μM, Fig. 2E-b",decreased HBs and HBe production
same,"HBs and HBe production, compound added after HBV infection (time of addition)","HBV [5]; CsA 4 μM, Fig. 2E-c",did not have an anti‐HBV effect
same,Dose-response of HBs (and HBe) secretion,"HBV [5]; protocol Fig. 1A, CsA 0.5-4 μM, analogs 0.25-4 μM",decreased HBs and HBe secreted from the infected cells
same,Infection of different HBV genotypes into PHHs,HBV [6],"reduced the infection of HBV genotype A, C, or D"
same,HCV entry (HCVpp luciferase activity),HCVpp,did not affect the entry of HCV
same,HBV infectivity after preincubation of HBV with compound,HBV particles,did not affect HBV infectivity
same,Calcineurin (CN)/NF-AT pathway inhibition,[1],can inhibit CN
heparin,HCV entry (HCVpp luciferase activity),HCVpp,inhibition of HCV entry
same,HBV infectivity after preincubation of HBV with compound,HBV particles,antagonizing effect
